Results taken from patent US12187705B2, “Heteroaryl-triazole and heteroaryl-tetrazole compounds as pesticides” (Bayer Aktiengesellschaft, priority 2018, dated 2025).

Experiments:
Assay type in all cases: in vivo
Diabrotica balteata = Diabrotica balteata spray test; conditions: 160 μg/well, wheat seeds, after 7 days; for pest or weed control at 160 µg/disc, 160 µg/well: Diabrotica balteata, 168 h, read-out: efficacy (seedlings grown)
Protocol: Diabrotica balteata—Spray Test
(§1) To produce a suitable preparation of active compound, 1 part by weight of active compound is mixed with the stated amount of solvent, and the concentrate is diluted with water, containing an emulsifier concentration of 1000 ppm, to the desired concentration. Further test concentrations are prepared by dilution with emulsifier containing water.
Soaked wheat seeds (Triticum aestivum) are placed in a multiple well plate filled with agar and some water and are incubated for 1 day to germinate (5 seeds per well). The germinated wheat seeds are sprayed with a test solution containing the desired concentration of the active ingredient. Afterwards each unit is infected with 10-20 larvae of the banded cucumber beetle (Diabrotica balteata).
After 7 days efficacy in % is determined. 100% means all the seedlings have grown up like in the untreated, uninfected control; 0% means none of the seedlings have grown.

Ctenocephalides felis [1] = assay: Ctenocephalides felis oral test; conditions: Ctenocephalides felis, in Bos taurus, po, 48 h
Protocol: Ctenocephalides felis—Oral Test
Solvent: dimethyl sulfoxide
To produce a suitable preparation of active compound, 10 mg of active compound are dissolved in 0.5 ml solvent, and the concentrate is diluted with cattle blood to the desired concentration.
Approximately 20 adult unfed cat fleas (Ctenocephalides felis) are placed in flea chambers. The blood chamber, sealed with parafilm on the bottom, are filled with cattle blood supplied with compound solution and placed on the gauze covered top of the flea chamber, so that the fleas are able to suck the blood. The blood chamber is heated to 37° C. whereas the flea chamber is kept at room temperature.
After 2 days mortality in % is determined. 100% means all the fleas have been killed; 0% means none of the fleas have been killed.

Nezara viridula = Nezara viridula spray test; conditions: in Hordeum vulgare, 96 h
Protocol: Nezara viridula—Spray Test
as §1
Barley plants (Hordeum vulgare) infested with larvae of the southern green stink bug (Nezara viridula) are sprayed with a test solution containing the desired concentration of the active ingredient.
After 4 days mortality in % is determined. 100% means all the stink bugs have been killed; 0% means none of the stink bugs have been killed.

[2] = system: Culex quinquefasciatus strain P00; assay: Culex quinquefasciatus test (CULXFA surface treatment & contact assay); conditions: surface concentration 20 mg/m^2, 30 minutes exposure, 24 hours after contact, read-out: efficacy (mortality)
Protocol: Culex quinquefasciatus Test (CULXFA Surface Treatment & Contact Assay)
Solvent: Aceton+2000 ppm rapeseed oil methyl ester (RME)
In order to produce a sufficient, active ingredient containing solution it is necessary to solve the test-compound in the solvent-mix (Acetone at 2 mg/ml/RME 2000 ppm). This solution is pipetted onto a glazed tile and after evaporation of the Acetone, adult mosquitoes of the species Culex quinquefasciatus strain P00 are placed onto the dried surface. The exposure time is 30 minutes.
Mortality in percent (%) is determined 24 hours after contact to the treated surface. 100% mortality means that all test-insects are dead, whereas 0% means that not a single insect died.

Myzus persicae = Myzus persicae oral test; conditions: 120 h
Protocol: To produce a suitable preparation of active compound, 1 part by weight of active compound is mixed with the stated amount of solvent, and the concentrate is diluted with water to the desired concentration.
50 μl compound solution is filled in microtiter plates and 150 μl IPL41 insect medium (33%+15% sugar) is added to obtain a total volume of 200 μl per well. Afterwards the plates are sealed with parafilm through which a mixed population of the green peach aphid (Myzus persicae) can suck on the compound preparation.
After 5 days mortality in % is determined. 100% means all aphids have been killed and 0% means none of the aphids have been killed.

Ctenocephalides felis [3] = assay: Ctenocephalides felis in-vitro contact test adult cat flea; conditions: 5 μg/cm^2 (=500 g/ha), after 48 hours
Protocol: Ctenocephalides felis—In-Vitro Contact Test Adult Cat Flea
9 mg compound is solved in 1 ml acetone and diluted with acetone to the desired concentration. 250 μl of the test solution is filled in 25 ml glass test tubes and homogeneously distributed on the inner walls by rotation and tilting on a shaking device (2 h at 30 rpm). With a compound concentration of 900 ppm, an inner surface of 44.7 cm^2 and a homogeneous distribution, a dose of 5 μg/cm^2 is achieved.
After the solvent has evaporated, each test tube is filled with 5-10 adult cat fleas (Ctenocephalides felis), closed with a perforated lid and incubated in a lying position at room temperature and relative humidity. After 48 hours efficacy is determined. The fleas are patted on the ground of the tubes and are incubated on a heating plate at 45-50° C. for at most 5 minutes. Immotile or uncoordinated moving fleas, which are not able to escape the heat by climbing upwards, are marked as dead or moribund.
An efficacy of 100% means all fleas are dead or moribund; 0% means no fleas are dead or moribund.

CC(NC(=O)c1cccc(-c2ccc(OC(F)(F)F)cc2)c1)c1ncnn1-c1ncccn1 (stereo not shown) [Example I-115]
pest or weed control at 160 µg/disc, 160 µg/well (Diabrotica balteata): 100%

CC(c1ncnn1-c1ncccn1)N(CC1CC1)C(=O)c1cc(Cl)ccc1Cl (stereo not shown) [Example I-014]
pest or weed control at 160 µg/disc, 160 µg/well (Diabrotica balteata): 100%

C[C@H](NC(=O)c1cc(Cl)cc(S(C)(=O)=O)c1)c1ncnn1-c1cnc(C#N)cn1 [Example I-117]
efficacy (seedlings grown) (Diabrotica balteata): 100%

C[C@@H](NC(=O)c1cc(Cl)cc(NC(=O)C2CC2)c1)c1ncnn1-c1ncccn1 [Example I-088]
mortality at 100 ppm (Ctenocephalides felis [1]): 100%

CC(NC(=O)c1cc(C(F)(F)F)cc(Cl)c1F)c1ncnn1-c1ncccn1 (stereo not shown) [Example I-104]
efficacy (seedlings grown) (Diabrotica balteata): 100%

CC(NC(=O)c1cc(Cl)cc(S(=O)(=O)C(F)(F)F)c1)c1ncnn1-c1ncc(Cl)cc1F (stereo not shown) [Example I-079]
efficacy (seedlings grown) (Diabrotica balteata): 100%

COC[C@H](NC(=O)c1cc(Cl)cc(S(C)(=O)=O)c1)c1ncnn1-c1ccc(C#N)cn1 [Example I-058, 3-chloro-N-{(1R)-1-[1-(5-cyanopyridin-2-yl)-1H-1,2,4-triazol-5-yl]-2-methoxyethyl}-5-(methylsulfonyl)benzamide]
mortality at 100 ppm (Ctenocephalides felis [1]): 100%

C[C@@H](NC(=O)c1cc(C2CC2)on1)c1ncnn1-c1ncccn1 [Example I-107]
mortality at 500 g/ha (Nezara viridula): 100%
pest or weed control at 160 µg/disc, 160 µg/well (Diabrotica balteata): 100%
mortality at 20 mg/m2 [2]: 80 to 100%

C[C@@H](NC(=O)c1cc(Cl)cc(SC(C)(C)C)c1)c1ncnn1-c1ncccn1 [Example I-060]
mortality at 500 g/ha (Nezara viridula): 100%
pest or weed control at 160 µg/disc, 160 µg/well (Diabrotica balteata): 100%
mortality at 100 ppm (Ctenocephalides felis [1]): 100%

CC(c1ncnn1-c1ncccn1)N(CC1CC1)C(=O)Cc1cc(Cl)cc(C(F)(F)F)c1 (stereo not shown) [Example I-011]
pest or weed control at 160 µg/disc, 160 µg/well (Diabrotica balteata): 100%

CC(c1ncnn1-c1ncccn1)N(CC1CC1)C(=O)c1cc(Cl)cc(C(=O)NC2CC2)c1 (stereo not shown) [Example I-007]
mortality at 500 g/ha (Nezara viridula): 100%
mortality at 4 ppm (Myzus persicae): 100%
mortality at 20 ppm (Myzus persicae): 100%
pest or weed control at 160 µg/disc, 160 µg/well (Diabrotica balteata): 100%
mortality at 100 ppm (Ctenocephalides felis [1]): 100%
pest or weed control at 5 µg/cm2, 5 µg/cm2 (Ctenocephalides felis [3]; Ctenocephalides felis, read-out: efficacy (fleas dead or moribund)): 100%

C[C@@H](c1ncnn1-c1ccc(C#N)cn1)N(CC1CC1)C(=O)c1cc(F)cc(C2CC2)c1 [Example I-121]
efficacy (seedlings grown) (Diabrotica balteata): 100%

C[C@H](NC(=O)c1cc(Br)cc(C(C)(C)C)c1)c1ncnn1-c1ncccn1 [Example I-125]
efficacy (seedlings grown) (Diabrotica balteata): 100%

CC(NC(=O)c1csc(Cl)c1)c1ncnn1-c1ncc(C(F)(F)F)cn1 (stereo not shown) [Example I-098]
efficacy (seedlings grown) (Diabrotica balteata): 100%
efficacy (fleas dead or moribund) (Ctenocephalides felis [3]): 90%

C[C@H](NC(=O)c1cc(Cl)cc(NS(=O)(=O)c2ccccc2)c1)c1ncnn1-c1ncccn1 [Example I-086, 3-chloro-5-[(phenylsulfonyl)amino]-N-{(1S)-1-[1-(pyrimidin-2-yl)-1H-1,2,4-triazol-5-yl]ethyl}benzamide]
mortality at 4 ppm (Myzus persicae): 90%

CC(NC(=O)c1cc(Cl)cc(S(=O)(=O)C(F)(F)F)c1)c1ncnn1-c1ncc(C(F)(F)F)cn1 (stereo not shown) [Example I-097]
efficacy (seedlings grown) (Diabrotica balteata): 100%

CC(NC(=O)c1cc(Cl)cc(C2CC2)c1)c1ncnn1-c1ccc(C#N)cn1 (stereo not shown) [Example I-054]
efficacy (seedlings grown) (Diabrotica balteata): 100%
efficacy (fleas dead or moribund) (Ctenocephalides felis [3]): 80%

CC(NC(=O)c1cc(Cl)cc(S(C)(=O)=O)c1)c1nc(C(F)(F)F)nn1-c1ccc(Cl)cn1 (stereo not shown) [Example I-090]
efficacy (seedlings grown) (Diabrotica balteata): 100%

Cc1cnc(-n2ncnc2[C@@H](C)NC(=O)c2csc(Cl)c2)nc1 [Example I-109]
mortality at 500 g/ha (Nezara viridula): 90%

C[C@H](NC(=O)c1cc(Cl)cc(S(=O)(=O)C(F)(F)F)c1)c1ncnn1-c1ccc(F)cn1 [Example I-118]
efficacy (seedlings grown) (Diabrotica balteata): 100%
